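These data come from cells grown in 96-well plates and exposed to compound for 48 hours at five concentrations. TGI marks complete inhibition of growth.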
What was measured:
Assay in all cases: inhibition of tumour cell growth, NCI panel, 48 h
SF-295 CNS = test system: SF-295 CNS
HOP-62 NSCLC = test system: HOP-62 NSCLC
NCI-H460 lung = test system: NCI-H460 lung
MDA-MB-435 = test system: MDA-MB-435
NCI-H226 lung = test system: NCI-H226 lung
NCI-H23 lung = test system: NCI-H23 lung
OVCAR-8 ovarian = test system: OVCAR-8 ovarian
U251 CNS = test system: U251 CNS
A549 NSCLC = test system: A549 NSCLC
ACHN renal = test system: ACHN renal
SN12C renal = test system: SN12C renal
SNB-75 CNS = test system: SNB-75 CNS
HS 578T breast = test system: HS 578T breast
COLO 205 colon = test system: COLO 205 colon
SK-MEL-2 melanoma = test system: SK-MEL-2 melanoma
NCI/ADR-RES ovarian = test system: NCI/ADR-RES ovarian
SF-539 CNS = test system: SF-539 CNS
SNB-19 CNS = test system: SNB-19 CNS
UO-31 renal = test system: UO-31 renal
SW-620 colon = test system: SW-620 colon
786-0 renal = test system: 786-0 renal
NCI-H522 lung = test system: NCI-H522 lung
MALME-3M melanoma = test system: MALME-3M melanoma
LOX IMVI melanoma = test system: LOX IMVI melanoma
RPMI-8226 leukemia = test system: RPMI-8226 leukemia
OVCAR-4 ovarian = test system: OVCAR-4 ovarian
CAKI-1 renal = test system: CAKI-1 renal
HT29 colon = test system: HT29 colon
MDA-MB-231 breast = test system: MDA-MB-231 breast
DU-145 prostate = test system: DU-145 prostate
HL-60(TB) leukemia = test system: HL-60(TB) leukemia
OVCAR-3 ovarian = test system: OVCAR-3 ovarian
HCC-2998 colon = test system: HCC-2998 colon
TK-10 renal = test system: TK-10 renal
MOLT-4 leukemia = test system: MOLT-4 leukemia
HCT-15 colon = test system: HCT-15 colon
SR leukemia = test system: SR leukemia
SK-MEL-5 melanoma = test system: SK-MEL-5 melanoma
HOP-92 NSCLC = test system: HOP-92 NSCLC
HCT-116 colon = test system: HCT-116 colon
OVCAR-5 ovarian = test system: OVCAR-5 ovarian
KM12 colon = test system: KM12 colon
MCF7 breast = test system: MCF7 breast
UACC-62 melanoma = test system: UACC-62 melanoma
SF-268 CNS = test system: SF-268 CNS
K-562 leukemia = test system: K-562 leukemia
BT-549 breast = test system: BT-549 breast
EKVX NSCLC = test system: EKVX NSCLC
SK-MEL-28 melanoma = test system: SK-MEL-28 melanoma
T-47D breast = test system: T-47D breast
UACC-257 melanoma = test system: UACC-257 melanoma
IGROV1 ovarian = test system: IGROV1 ovarian
M14 melanoma = test system: M14 melanoma
CCRF-CEM leukemia = test system: CCRF-CEM leukemia
PC-3 prostate = test system: PC-3 prostate
SK-OV-3 ovarian = test system: SK-OV-3 ovarian
A498 renal = test system: A498 renal
MDA-N = test system: MDA-N
RXF 393 renal = test system: RXF 393 renal

SMILES: Cc1cccc(/C=N/NC(=S)NCc2ccccn2)n1
- TGI (SF-295 CNS): > 100 µM
- TGI (HOP-62 NSCLC): > 78.6 µM
- TGI (NCI-H460 lung): > 100 µM
- TGI (MDA-MB-435): > 100 µM
- TGI (NCI-H226 lung): > 100 µM
- TGI (NCI-H23 lung): > 100 µM
- TGI (OVCAR-8 ovarian): > 100 µM
- TGI (U251 CNS): > 100 µM
- TGI (A549 NSCLC): > 100 µM
- TGI (ACHN renal): 67.5 µM
- TGI (SN12C renal): > 100 µM
- TGI (SNB-75 CNS): 73.6 µM
- TGI (HS 578T breast): > 100 µM
- TGI (COLO 205 colon): > 100 µM
- TGI (SK-MEL-2 melanoma): > 100 µM
- TGI (NCI/ADR-RES ovarian): > 75.4 µM
- TGI (SF-539 CNS): 67.9 µM
- TGI (SNB-19 CNS): > 100 µM
- TGI (UO-31 renal): 60 µM
- TGI (SW-620 colon): > 100 µM
- TGI (786-0 renal): > 100 µM
- TGI (NCI-H522 lung): > 100 µM
- TGI (MALME-3M melanoma): > 100 µM
- TGI (LOX IMVI melanoma): > 100 µM
- TGI (RPMI-8226 leukemia): > 100 µM
- TGI (OVCAR-4 ovarian): > 100 µM
- TGI (CAKI-1 renal): > 100 µM
- TGI (HT29 colon): > 100 µM
- TGI (MDA-MB-231 breast): > 100 µM
- TGI (DU-145 prostate): > 100 µM
- TGI (HL-60(TB) leukemia): > 100 µM
- TGI (OVCAR-3 ovarian): > 100 µM
- TGI (HCC-2998 colon): > 100 µM
- TGI (TK-10 renal): > 100 µM
- TGI (MOLT-4 leukemia): > 100 µM
- TGI (HCT-15 colon): > 100 µM
- TGI (SR leukemia): > 100 µM
- TGI (SK-MEL-5 melanoma): 70.9 µM
- TGI (HOP-92 NSCLC): 98.5 µM
- TGI (HCT-116 colon): > 100 µM
- TGI (OVCAR-5 ovarian): > 100 µM
- TGI (KM12 colon): > 100 µM
- TGI (MCF7 breast): > 100 µM
- TGI (UACC-62 melanoma): 54.3 µM
- TGI (SF-268 CNS): > 93 µM
- TGI (K-562 leukemia): > 100 µM
- TGI (BT-549 breast): > 100 µM
- TGI (EKVX NSCLC): > 100 µM
- TGI (SK-MEL-28 melanoma): > 100 µM
- TGI (T-47D breast): > 100 µM
- TGI (UACC-257 melanoma): > 100 µM
- TGI (IGROV1 ovarian): > 100 µM
- TGI (M14 melanoma): 42.6 µM
- TGI (CCRF-CEM leukemia): > 100 µM
- TGI (PC-3 prostate): > 100 µM
- TGI (SK-OV-3 ovarian): 97.7 µM
- TGI (A498 renal): > 100 µM
- TGI (MDA-N): > 100 µM

SMILES: NC(N)=NC(CC(=O)O)c1ccccc1 (configuration not stated)
- TGI (SF-295 CNS): > 100 µM
- TGI (HOP-62 NSCLC): > 100 µM
- TGI (NCI-H460 lung): > 100 µM
- TGI (MDA-MB-435): > 100 µM
- TGI (NCI-H23 lung): > 100 µM
- TGI (OVCAR-8 ovarian): > 100 µM
- TGI (U251 CNS): > 100 µM
- TGI (A549 NSCLC): > 100 µM
- TGI (ACHN renal): > 100 µM
- TGI (SN12C renal): > 100 µM
- TGI (SNB-75 CNS): > 100 µM
- TGI (HS 578T breast): > 100 µM
- TGI (COLO 205 colon): > 100 µM
- TGI (SK-MEL-2 melanoma): > 100 µM
- TGI (NCI/ADR-RES ovarian): > 100 µM
- TGI (SF-539 CNS): > 100 µM
- TGI (SNB-19 CNS): > 100 µM
- TGI (UO-31 renal): > 100 µM
- TGI (SW-620 colon): > 100 µM
- TGI (786-0 renal): > 100 µM
- TGI (NCI-H522 lung): > 100 µM
- TGI (MALME-3M melanoma): > 100 µM
- TGI (LOX IMVI melanoma): > 100 µM
- TGI (RPMI-8226 leukemia): > 100 µM
- TGI (OVCAR-4 ovarian): > 100 µM
- TGI (CAKI-1 renal): > 100 µM
- TGI (HT29 colon): > 100 µM
- TGI (MDA-MB-231 breast): > 100 µM
- TGI (DU-145 prostate): > 100 µM
- TGI (OVCAR-3 ovarian): > 100 µM
- TGI (TK-10 renal): > 100 µM
- TGI (HCT-15 colon): > 100 µM
- TGI (SR leukemia): > 100 µM
- TGI (SK-MEL-5 melanoma): > 100 µM
- TGI (HOP-92 NSCLC): > 100 µM
- TGI (HCT-116 colon): > 100 µM
- TGI (OVCAR-5 ovarian): > 100 µM
- TGI (KM12 colon): > 100 µM
- TGI (RXF 393 renal): > 100 µM
- TGI (MCF7 breast): > 100 µM
- TGI (UACC-62 melanoma): > 100 µM
- TGI (SF-268 CNS): > 100 µM
- TGI (K-562 leukemia): > 100 µM
- TGI (BT-549 breast): > 100 µM
- TGI (EKVX NSCLC): > 100 µM
- TGI (SK-MEL-28 melanoma): > 100 µM
- TGI (T-47D breast): > 100 µM
- TGI (UACC-257 melanoma): > 100 µM
- TGI (IGROV1 ovarian): > 100 µM
- TGI (M14 melanoma): > 100 µM
- TGI (PC-3 prostate): > 100 µM
- TGI (SK-OV-3 ovarian): > 100 µM
- TGI (A498 renal): > 100 µM
- TGI (MDA-N): > 100 µM
